According to PubChem BioAssay (NCI):
“And” between values parts separate entries of the source, which are not always exact repeats. Identical values can stand only once.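 Growth conditions: 96-well plates. Treatment: test compound, 48 hours, 5 concentrations. Analysis: linear interpolation between bracketing concentrations; unreached endpoints set to highest concentration. GI50 is the concentration that inhibits growth by half. The concentration for full growth arrest is given as TGI.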

Columns and labels:
Experiment in all cases: NCI anticancer screen, dose series, 48 h
EKVX NSCLC = test system: EKVX NSCLC
IGROV1 ovarian = test system: IGROV1 ovarian
HL-60(TB) leukemia = test system: HL-60(TB) leukemia
RXF 393 renal = test system: RXF 393 renal
UO-31 renal = test system: UO-31 renal
HOP-62 NSCLC = test system: HOP-62 NSCLC
HT29 colon = test system: HT29 colon
HOP-92 NSCLC = test system: HOP-92 NSCLC
RPMI-8226 leukemia = test system: RPMI-8226 leukemia
MDA-MB-435 = test system: MDA-MB-435

Structure (SMILES)	TGI (EKVX NSCLC) [µM]	TGI (IGROV1 ovarian) [µM]	TGI (HL-60(TB) leukemia) [µM]	TGI (RXF 393 renal) [µM]	TGI (UO-31 renal) [µM]	TGI (HOP-62 NSCLC) [µM]	TGI (HT29 colon) [µM]	TGI (HOP-92 NSCLC) [µM]	TGI (RPMI-8226 leukemia) [µM]	GI50 (HL-60(TB) leukemia)	GI50 (HT29 colon)	GI50 (EKVX NSCLC) [µM]	GI50 (MDA-MB-435) [µM]	TGI (MDA-MB-435) [µM]	GI50 (IGROV1 ovarian) [µM]	GI50 (RXF 393 renal) [µM]	GI50 (UO-31 renal) [µM]	GI50 (HOP-62 NSCLC) [µM]	GI50 (RPMI-8226 leukemia) [µM]	GI50 (HOP-92 NSCLC) [µM]
C/C(CC(=O)Nc1ccc(Cl)c(Cl)c1)=N/NC(=O)C[n+]1ccccc1	> 100	> 100	> 100	> 100	> 100	> 100	> 100	> 100	> 100											
COc1ccc(C(=O)OCC2OC(n3cnc4c(=S)nc[nH]c43)C(OC(=O)c3ccc(OC)cc3)C2OC(=O)c2ccc(OC)cc2)cc1 (configuration not stated)		> 100	> 100		> 100	> 100	> 100	> 100	> 100											
COc1ccc2c(=O)c(C)c(-c3ccccc3)oc2c1CN(C)C	> 100	> 100	> 100	> 100	> 100	> 100	> 100	> 100	> 100	> 100 µM and 34.6 µM	> 100 µM and 30.6 µM									
Cn1nccc1Nc1nccc(-c2cc3c(s2)C(C)(C)N(CCN2CCOCC2)C3=O)n1	> 100	> 100	78	> 85.3	> 100	> 100	> 100		> 100	0.499 µM	0.277 µM	3.1	0.852	> 100	2.15	4.73	3.76	7.53	23.3	
Cc1nc(Cl)nc(Cl)c1C	> 100	> 100	> 100	> 100	> 100	> 100	> 100		> 100					> 100						
COc1ccc(C[C@@H]2Cc3cc(OC)c(OC)cc3CN2C)cc1	> 100				> 100	> 100	> 100		> 100											
CC1(C)COC(C23C4C5C2C2C3C4C52I)=N1 (configuration not stated)	> 100	> 100		> 100	> 100	> 100	> 100	> 100	> 100											
CCOC(C)C(/C=N/NC(N)=S)=NNC(N)=S (configuration not stated)	> 100		> 100		> 77.2	> 100		> 100	> 100											
O=S1c2ccccc2N=C(c2ccc3ccccc3c2)CC1C1=CC=CCC1 (configuration not stated)	42.8	28.9	36.8	30.4	26.7	40.4	31.4		36.9											
Cc1c(Cl)ccc2c1NC(=O)C2(O)C(C(=O)c1ccccc1)c1ccccc1 (configuration not stated)	> 100	> 100	39.5	73.8	> 100	> 100	> 100		69											
CCCN(CCCCC(NC(C)=O)C(=O)NCc1ccccc1)C(=O)N(C)N=O (configuration not stated)	> 100	> 100		> 100	> 100	> 100	> 100	> 100	> 100											
COc1ccc2c(c1)c(=O)c1ccccc1n2/C=C/C(=O)O	> 100	> 100	> 66.6	> 100	> 100	> 100	> 100	> 100	> 100											
COc1cc(/C=C2\[C@H]3c4c(c(OC)c(C)c(OC)c4OC)C[C@@H](C(=O)N2Cc2ccccc2)N3C(=O)OCC(C)C)c(OC)c(C)c1OC	> 100	> 100	> 100	> 100	> 100	> 100	> 100	> 100	> 100											
COC(=O)/C=C1/CCC2[C@@H](C(=O)CC3[C@]2(C)CCC[C@@]3(C)C(=O)OC)C1C (some centres not stated)	42.3	43.6	7.81		37.5	39.5	20.2	18.1	14.4											
CC1CC2(C)ON=C(c3ccccc3)N2c2ccccc2S1 (configuration not stated)							80		69.2	23.5 µM	27.9 µM	29.4	26	93.3	53		28.1	56.7	20.4	
CN(C)CCNC(=O)c1cc2ccccc2c2nc3ccccc3nc12	7.37	> 20.7		2.33		5	2.9		3.42											
Cc1cc(NS(=O)(=O)c2ccc(N=Nc3cc(N=Nc4ccc(S(=O)(=O)Nc5cc(C)nc(C)n5)cc4)c4c(NC(=O)C(Cl)Cl)cccc4c3OC(=O)C(Cl)Cl)cc2)nc(C)n1 (tested in a mixture with another compound)	53.5	53.2	52.4	38.7	37.4	78.8	46	59.2												
CCOC(=O)/C(=C\c1ccc(O)c(OC)c1)C(=O)c1ccccc1	> 53.3	39	52.4	57.8	> 51		> 66.8	70.7	42.1											
O=S(=O)(O)O.[NH-]C1CCCCC1[NH-].[Pt+2] (configuration not stated)	> 100	> 100	> 100	> 100	> 100	> 100	> 100	> 100	> 100	19.3 µM	63.1 µM	> 100			> 100	> 100	> 100	> 100	48.6	56.7
CS(=O)(=O)NNS(=O)(=O)c1cccc([N+](=O)[O-])c1	> 100	> 100	> 100	> 100	> 100	> 100	> 100		> 100											
Cc1ccc(NC(=O)CCC(CC(=O)C(C)(C)C)=NNC(=O)C(=O)NN)cc1C	> 100	> 100	> 100	> 100	> 100	> 100	> 100		> 100											
Cc1ccc(NC(=O)C(=O)C2C(=O)N(c3ccccc3)N=C2N)cc1C (configuration not stated)	> 100	> 100	> 100		> 100	> 100	> 100	> 100	> 100											
COC(=O)C1=C(O)c2cc(OC)c(OC)c(OC)c2[C@H](c2cc(OC)c(OC)c(OC)c2)C1C(=O)OC (some centres not stated)	> 100	> 100	61.6	59.5	> 100	> 100	61.6	69.3	87.1											
